Values of other authors, collected in publication PMC7395068, “The evolution of strategies to minimise the risk of human drug-induced liver injury (DILI) in drug discovery and development” (Archives of Toxicology, 2020).

Conditions: in vivo; cited from earlier work

Compound | DILI +VE (5-8), DILI -VE (-4) | DILI severity category
Cl.N [ammonium chloride] | -VE | vNo-DILI-Concern

Conditions: […]; cited from earlier work

Compound | In vivo DILI
Cc1coc2c1CCC(C)C2 (centres unmarked) [menthofuran] | +VE
C#C[C@]1(O)CC[C@H]2[C@@H]3CCc4cc(OC)ccc4[C@H]3CC[C@@]21C [mestranol] | -VE
C[C@H](N)[C@H](O)c1cccc(O)c1 [metaraminol] | -VE
CBr [methyl bromide] | -VE
CCCCC1C(=O)N(c2ccccc2)N(c2ccc(O)cc2)C1=O (centres unmarked) [oxyphenbutazone] | +VE
COc1ccc(CN(CCN(C)C)c2ccccn2)cc1 [pyrilamine] | -VE
COc1ncnc(NS(=O)(=O)c2ccc(N)cc2)c1OC [sulfadoxine] | -VE
C[C@]12C=CC(=O)C=C1CC[C@H]1[C@@H]3C[C@@H](O)[C@](O)(C(=O)CO)[C@@]3(C)C[C@H](O)[C@@]12F [triamcinolone] | -VE
hemin | -VE

Same assay, conditions: assignment in O'Brien 2006; ref O'Brien 2006; cited from earlier work

Compound | In vivo DILI
C[C@H](CCC(=O)O)C[C@H](C)C[C@H](C)C(=O)/C=C(\O)[C@H](C)C[C@H](C)C/C=C/[C@@H](C)[C@@H](O)[C@@H](C)[C@@H](O)C[C@@H]1CC[C@@](C)([C@H]2CC[C@@](C)([C@@H](C)O)O2)O1 [ionomycin] | +VE
O=C(O)CC[N+](=O)[O-] [nitroproprionic acid] | +VE
CN(C)N=O [nitrosodimethylamine] | +VE
CC(C)[C@@]1(O)[C@@H](OC(=O)c2ccc[nH]2)[C@@]2(O)[C@@]3(C)C[C@]4(O)O[C@@]5([C@H](O)[C@@H](C)CC[C@]35O)[C@@]2(O)[C@@]14C [ryanodine] | +VE
[Na+].[OH-] [sodium hydroxide] | +VE
C[C@H](CCC(=O)NCCS(=O)(=O)O)[C@H]1CC[C@H]2[C@@H]3[C@H](O)C[C@@H]4C[C@H](O)CC[C@]4(C)[C@H]3C[C@H](O)[C@]12C [taurocholic] | +VE
C[C@H](CCC(=O)NCCS(=O)(=O)O)[C@H]1CC[C@H]2[C@@H]3CC[C@@H]4C[C@H](O)CC[C@]4(C)[C@H]3C[C@H](O)[C@]12C [taurodeoycholic] | +VE
C[C@H](CCC(=O)NCCS(=O)(=O)O)[C@H]1CC[C@H]2[C@@H]3CC[C@@H]4C[C@H](O)CC[C@]4(C)[C@H]3CC[C@]12C [taurolithocholic] | +VE
ClC=C(Cl)Cl [trichloroethylene] | +VE
dichloroethylene | +VE

Same assay, conditions: in vivo; cited from earlier work

Compound | In vivo DILI
Cl.N [ammonium chloride] | -VE
CCNC(=O)[C@@H]1CCCN1C(=O)[C@H](CCCNC(=N)N)NC(=O)[C@H](CC(C)C)NC(=O)[C@@H](CC(C)C)NC(=O)[C@H](Cc1ccc(O)cc1)NC(=O)[C@H](CO)NC(=O)[C@H](Cc1c[nH]c2ccccc12)NC(=O)[C@H](Cc1c[nH]cn1)NC(=O)[C@@H]1CCC(=O)N1 [leuprolide] | -VE
Cc1cccc(O)c1 [m-cresol] | +VE
O=C(O)CC(=O)O [malonic acid] | +VE
CC[C@@]1([C@@H]2O[C@@H]([C@H]3O[C@@](O)(CO)[C@H](C)C[C@@H]3C)C[C@@H]2C)CC[C@H]([C@]2(C)CC[C@]3(C[C@H](O)[C@@H](C)[C@@H]([C@@H](C)[C@@H](OC)[C@H](C)C(=O)O)O3)O2)O1 [monensin] | +VE
CC(N)C(O)c1ccccc1 (centres unmarked) [phenylpropanolamine] | -VE
C[N+]1(C)[C@@H]2C[C@@H](OC(=O)C(O)(c3cccs3)c3cccs3)C[C@H]1[C@@H]1O[C@@H]12 [tiotropium] | -VE

Same assay, conditions: ref Schadt 2015; cited from earlier work

Compound | In vivo DILI
NC(=O)N1c2ccccc2CC(=O)c2ccccc21 [oxcarbazeptin] | +VE
